Measurements published in publication PMC8339067 (NPJ Breast Cancer, 2021).
Like-named read-outs stand apart in the source and are kept apart here. Each block holds one compound with its values, some of them ahead of it.

Assays:
[1] = rats, single dose of the conjugate with trastuzumab, radiolabeled; cited from earlier work
[2] = cited from earlier work
[3] = single agent, cited from earlier work
[4] = Ribociclib plasma pharmacokinetics with T-DM1 (LC-MS/MS, noncompartmental); format: in vivo, human; conditions: for AUC: read-out: AUC24
From the text: Additional samples were collected according to this same schedule after the drug was taken for at least 8 days consecutive without interruption to define its steady-state pharmacokinetics. […] The assay was validated and applied to the analysis of study samples according to the recommendations in the current U.S. Food and Drug Administration Guidance for Industry on Bioanalytical Method Validation (https://www.fda.gov/drugs/-guidance-compliance-regulatory-information/guidances-drugs). […] Actual time points were calculated as the difference between the blood sample collection time and the time that the drug was taken. The plasma concentration-time data were analyzed by noncompartmental methods using model 200 for extravascular drug input in WinNonlin Professional version 5.0.1 (Pharsight Corp, Mountain View, CA). The area under the plasma concentration-time curve from the time of dosing to the time of the last sample collected prior to administration of the next dose (AUC24) was estimated using the linear-log trapezoidal method. Total oral clearance (CL/F) was calculated as the dose divided by the AUC24 for the dose given on days 19–21. Pharmacokinetic parameters are reported as the geometric mean (geometric CV%) of the values for individual patients at each dose level. GraphPad Prism for Windows, version 8.4.3 (GraphPad Software, La Jolla, CA) was used for the statistical analysis and graphical presentation of the pharmacokinetic data.

[5] = 300 mg, dose no. 11-12 (steady state), 3 patients, geometric mean
[6] = 400 mg, dose no. 13 (steady state), 1 patient
[7] = 500 mg, dose no. 12 (steady state), 2 patients, geometric mean
[8] = 600 mg, dose no. 13 (steady state), 1 patient

Compound: COc1cc2cc(c1Cl)N(C)C(=O)C[C@H](OC(=O)[C@H](C)N(C)C(=O)CCS)[C@]1(C)O[C@H]1[C@H](C)[C@@H]1C[C@@](O)(NC(=O)O1)[C@H](OC)/C=C/C=C(\C)C2 [DM1]
Time to complete clearance [1]: ≤ 5 days
Half-life [2]: approximately 4 days

Cmin ([4]; 300 mg, dose no. 1, 3 patients, geometric mean, lowest calibration concentration 1.0 ng/mL): < LLQ
CL/F [4, 5]: 38.6 L/h
Cmin [4, 5]: 141.7 ng/mL
Cmin ([4]; 400 mg, dose no. 1, 3 patients, geometric mean, lowest calibration concentration 1.0 ng/mL): < LLQ
CL/F [4, 6]: 47.4 L/h
Cmin [4, 6]: 125.6 ng/mL
Cmin ([4]; 500 mg, dose no. 1, 3 patients, geometric mean, lowest calibration concentration 1.0 ng/mL): < LLQ
AUC24 [4, 7]: 8,958 ng•h/mL
CL/F [4, 7]: 55.8 L/h
Cmax [4, 7]: 702.8 ng/mL
Cmin [4, 7]: 178.7 ng/mL
Cmin ([4]; 600 mg, dose no. 1, 3 patients, geometric mean, lowest calibration concentration 1.0 ng/mL): < LLQ
CL/F [4, 8]: 27.3 L/h
Cmin [4, 8]: 493.9 ng/mL
Overall geometric mean apparent oral clearance ([4]; from AUC24 at steady state, 7 patients, CV 28.1%): 42.1 L/h
AUC ([4]; human, plasma, oral, 300 mg, dose no. 1, 3 patients, geometric mean): 5330 ng·h/mL
Cmax ([4]; human, plasma, oral, 300 mg, dose no. 1, 3 patients, geometric mean, read-out: Cmax): 505 ng/mL
AUC ([4]; human, plasma, oral, 300 mg, dose no. 11-12 (steady state), 3 patients, geometric mean): 7770 ng·h/mL
Cmax ([4]; human, plasma, oral, 300 mg, dose no. 11-12 (steady state), 3 patients, geometric mean, read-out: Cmax): 608 ng/mL
AUC ([4]; human, plasma, oral, 400 mg, dose no. 1, 3 patients, geometric mean): 7980 ng·h/mL
Cmax ([4]; human, plasma, oral, 400 mg, dose no. 1, 3 patients, geometric mean, read-out: Cmax): 735 ng/mL
AUC ([4]; human, plasma, oral, 400 mg, dose no. 13 (steady state), 1 patient): 8430 ng·h/mL
Cmax ([4]; human, plasma, oral, 400 mg, dose no. 13 (steady state), 1 patient, read-out: Cmax): 871 ng/mL
AUC ([4]; human, plasma, oral, 500 mg, dose no. 1, 3 patients, geometric mean): 4830 ng·h/mL
AUC ([4]; human, plasma, oral, 600 mg, dose no. 1, 3 patients, geometric mean): 11800 ng·h/mL
Cmax ([4]; human, plasma, oral, 600 mg, dose no. 1, 3 patients, geometric mean, read-out: Cmax): 1270 ng/mL
AUC ([4]; human, plasma, oral, 600 mg, dose no. 13 (steady state), 1 patient): 22000 ng·h/mL
Cmax ([4]; human, plasma, oral, 600 mg, dose no. 13 (steady state), 1 patient, read-out: Cmax): 1740 ng/mL
Apparent oral clearance greater than with single agent ([4]; present trial versus single-agent 400 and 600 mg QD): 19–65%
Compound: CN(C)C(=O)c1cc2cnc(Nc3ccc(N4CCNCC4)cn3)nc2n1C1CCCC1 [ribociclib]
Geometric mean apparent oral clearance ([3]; 400 mg QD, four patients, CV 59.2%): 35.3 L/h
Geometric mean apparent oral clearance ([3]; 600 mg QD, 53 patients, CV 65.7%): 25.5 L/h
